Measured values reported in patent US9617538B2, “Heptamer-type small guide nucleic acids inducing apoptosis of human leukemia cells” (NIIGATA UNIVERSITY OF PHARMACY AND APPLIED LIFE SCIENCE, priority 2011, dated 2017).
{P} = phosphate

Key:
[1] = system: human leukemia cell line HL60; assay: MTT assay, HL60; type: cell-based; settings: sgRNA 1 μM, no delivery reagent, 72 hours (3 days), vs sgRNA non-administered group
Method: (§1) Each sgRNA (final concentration 1 μM) was added to a 96-well culture plate containing human cancer cell lines (1,000 cells/100 μl medium), without using a reagent for the delivery of the sgRNA into the cells. The cells were then cultured in a 37° C. CO2 incubator. […] Leukemia cells HL60, and myeloma cells KMM1 and RPMI-8226 were used as the human cancer cell lines, and the viable cell count was compared with that of an sgRNA non-administered group. As controls, each sgRNA was introduced to normal cells HEK293, and the same MTT assay was performed. • (1-3) Flow Cytometry Experiment

[2] = system: human myeloma cell line KMM1; assay: MTT assay, KMM1; type: cell-based; settings: sgRNA 1 μM, no delivery reagent, 72 hours (3 days), vs sgRNA non-administered group
Method: as §1

[3] = system: human myeloma cell line RPMI-8226; assay: MTT assay, RPMI-8226; type: cell-based; settings: sgRNA 1 μM, no delivery reagent, 72 hours (3 days), vs sgRNA non-administered group
Method: as §1

[4] = system: human leukemia cells HL60; assay: Mouse xenograft experiment; type: in vivo, immunodeficient nude mice; settings: HL60 subcutaneous xenograft; sgRNA 100 μM, 10 μl at transplantation site once daily for 5 days; difference of median survival time vs non-administered or ineffective-sgRNA group
Method: 2×10^6 human leukemia cells HL60 were subcutaneously transplanted into immunodeficient nude mice with an extracellular matrix. Each heptamer-type sgRNA (100 μM) was continuously administered to the transplantation site in a dose of 10 μl, once each day for 5 days, and the tumor volume was measured every day. The mice were euthanized upon the tumor volume reaching 1,500 mm^3. The experiment was conducted with groups of 6 to 8 mice, and the difference between the median value of the survival time of each sgRNA administered group and the median value of the survival time of the non-administered group (or a group administered with the ineffective heptamer-type sgRNA) was calculated as the extended lifetime due to the heptamer-type sgRNA. • (2) Results • (2-1) MTT Assay

Substance | MTT assay (Percentage reduction of viable cells) HL60 [1] | MTT assay (Percentage reduction of viable cells) KMM1 [2] | MTT assay (Percentage reduction of viable cells) RPMI [3] | Mouse xenograft experiment (Extended lifetime) [4]
Hep1(HAGE): heptamer-type sgRNA 5′-UCUUUCC-3′, phosphorylated at the 5′ and 3′ ends, 2′-O-methylated (all 2'-O-methyl, 5' {P}, 3' {P}, backbone not given here) | 91% | 61% | 5% | 
Hep1(MYC): heptamer-type sgRNA 5′-CAGCUCG-3′, phosphorylated at the 5′ and 3′ ends, 2′-O-methylated (all 2'-O-methyl, 5' {P}, 3' {P}, backbone not given here) | 90% | 56% | 16% | 
Hep1(bcl-2): heptamer-type sgRNA 5′-GGGCCAG-3′, phosphorylated at the 5′ and 3′ ends, 2′-O-methylated (all 2'-O-methyl, 5' {P}, 3' {P}, backbone not given here) | 88% | 0% | 18% | (+22 days)
Hep2(HAGE): heptamer-type sgRNA 5′-UAUAUUU-3′, phosphorylated at the 5′ and 3′ ends, 2′-O-methylated (all 2'-O-methyl, 5' {P}, 3' {P}, backbone not given here) | 94% | 72% | 5% | 
Hep2(PKCb): heptamer-type sgRNA 5′-CCGGGGC-3′, phosphorylated at the 5′ and 3′ ends, 2′-O-methylated (all 2'-O-methyl, 5' {P}, 3' {P}, backbone not given here) | 93% | 48% | 75% | 
Hep2(bcl-2): heptamer-type sgRNA 5′-GGGGGCG-3′, phosphorylated at the 5′ and 3′ ends, 2′-O-methylated (all 2'-O-methyl, 5' {P}, 3' {P}, backbone not given here) | 99% | 24% | 69% | (+19 days)
Hep3(MYC): heptamer-type sgRNA 5′-GCAGCUC-3′, phosphorylated at the 5′ and 3′ ends, 2′-O-methylated (5' {P}, 3' {P}, sugars by position and backbone not given here; 2'-O-methylated) | 90% | 67% | 2% | 
Hep5(IRF4): heptamer-type sgRNA 5′-GGGUCCU-3′, phosphorylated at the 5′ and 3′ ends, 2′-O-methylated (5' {P}, 3' {P}, sugars by position and backbone not given here; 2'-O-methylated) | 86% | 69% | 6% | 
Hep5(MYC): heptamer-type sgRNA 5′-GCUGCUG-3′, phosphorylated at the 5′ and 3′ ends, 2′-O-methylated (5' {P}, 3' {P}, sugars by position and backbone not given here; 2'-O-methylated) | 86% | 72% | 0% | 
Hep5(PRAME): heptamer-type sgRNA 5′-GCUCUGC-3′, phosphorylated at the 5′ and 3′ ends, 2′-O-methylated (5' {P}, 3' {P}, sugars by position and backbone not given here; 2'-O-methylated) | 94% | 17% | 54% | 
Hep6(PRAME): heptamer-type sgRNA 5′-UCCAGGU-3′, phosphorylated at the 5′ and 3′ ends, 2′-O-methylated (all 2'-O-methyl, 5' {P}, 3' {P}, backbone not given here) | 95% | 15% | 10% | 
Hep7(WT1): heptamer-type sgRNA 5′-CUGCUUU-3′, phosphorylated at the 5′ and 3′ ends, 2′-O-methylated (5' {P}, 3' {P}, sugars by position and backbone not given here; 2'-O-methylated) | 98% | 24% | 46% | 
Hep8(FGFR3): heptamer-type sgRNA 5′-AUCUUCA-3′, phosphorylated at the 5′ and 3′ ends, 2′-O-methylated (all 2'-O-methyl, 5' {P}, 3' {P}, backbone not given here) | 87% | 78% | 76% | (+10 days)
Hep9(FGFR3): heptamer-type sgRNA 5′-CACCAGC-3′, phosphorylated at the 5′ and 3′ ends, 2′-O-methylated (all 2'-O-methyl, 5' {P}, 3' {P}, backbone not given here) | 95% | 79% | 76% | (+6 days)
Hep(YW): heptamer-type sgRNA 5′-GCAUGCG-3′, phosphorylated at the 5′ and 3′ ends, 2′-O-methylated (all 2'-O-methyl, 5' {P}, 3' {P}, backbone not given here) | 96% | 59% | 0% | 
